Where two headings read alike, the source gives them in different places.
Key:
Herpes virus [1] = tested on: Herpes virus
Vaccinia virus = tested on: Vaccinia virus; set-up: species or system fertile eggs; conditions: various concentrations
[2] = tested on: Influenza B Massachusetts virus; test: Influenza B Mass. in mice, oral; late read day 5 (Table 39), 7 (Table 40), 11 (Tables 61, 65); control fraction 16/20 (Table 61), else 100%; type: in vivo, mouse
Method: A portion of a commercially available sample of amantadine was recrystallized from isopropanol. The activity of the material against Influenza B Mass. was tested for the sample as obtained, the recrystallized portion, and the mother liquor obtained from recrystallizing the portion.

Influenza PR 8 virus = test: Influenza PR 8 in mice, oral; schedule by table; late read day 6 (Table 37), 7 (33, 36), 8 (32, 35, 47), 10 (38); control fraction 18/20 (Table 32), 19/20 (Table 35), else 100%; type: in vivo, mouse
Herpes virus [3] = test: Herpes virus in chicken eggs, single dose 24 hours pre-infection; type: in vivo, chick embryo
[4] = tested on: Influenza, Ann Arbor virus; test: Influenza Ann Arbor in mice, subcutaneous; late read day 9 (Table 11), 7 (Tables 12, 14), 5 (Table 13); type: in vivo, mouse; conditions: total dose .05 μg

In the case of `NNC(N)=O` [semicarbazide], the animals survived (Herpes virus [1]; mouse, in vivo) is reported as 20 to 30%, the animals protected (Herpes virus [1]; no pre-treatment, one dose level) is reported as 50% and the “No. animals surviving after 6-9 days” value (Herpes virus [1]; total dose 5 μg) is reported as 7. The “No. animals surviving after 6-9 days” value (Herpes virus [1]; total dose .00005 μg) was 5, the “No. animals surviving when 100% (or given fraction) of controls are dead” value (Herpes virus [1]; total dose .00005 μg) was 5 and the “No. animals surviving when 100% (or given fraction) of controls are dead” value (Herpes virus [1]; total dose .0005 μg) was 0. The “No. animals surviving after 6-9 days” value (Herpes virus [1]; total dose .05 μg) was 5, the “effect on pox formation on the membrane” value (Vaccinia virus) was “No effect” and the “No. animals surviving when 100% (Table 61: 16/20) of controls are dead” value ([2]; total dose .000005 μg (5 pg)) was 0. For the same molecule, the Survivors ([2]; total dose .000005 μg (5 pg)) was 0, the “No. animals surviving when 100% (Table 61: 16/20) of controls are dead” value ([2]; total dose .00005 μg (50 pg)) was 0 and the Survivors ([2]; total dose .00005 μg (50 pg)) was 0. For the same molecule, the “No. animals surviving when 100% (Table 61: 16/20) of controls are dead” value ([2]; total dose .0005 μg (500 pg)) was 1, the Survivors ([2]; total dose .0005 μg (500 pg)) was 0 and the “No. animals surviving after 5 days (Table 61: 11 days)” value ([2]; total dose .005 μg (5 ng)) was 6. The “No. animals surviving when 100% (Table 61: 16/20) of controls are dead” value ([2]; total dose .005 μg (5 ng)) was 3, the Survivors ([2]; total dose .005 μg (5 ng)) was 0 and the “No. animals surviving after 5 days (Table 61: 11 days)” value ([2]; total dose .05 μg (50 ng)) was 6. The “No. animals surviving when 100% (Table 61: 16/20) of controls are dead” value ([2]; total dose .05 μg (50 ng)) was 1, the Survivors ([2]; total dose .05 μg (50 ng)) was 0 and the “No. animals surviving when 100% (Table 61: 16/20) of controls are dead” value ([2]; total dose .5 μg (500 ng)) was 1. For the same molecule, the Survivors ([2]; total dose .5 μg (500 ng)) was 0, the Survivors (Influenza PR 8 virus; total dose .000005 μg) was 0 and the “No. animals surviving when 100% (or given fraction) of controls are dead” value (Influenza PR 8 virus; total dose .00005 μg) was 0. The Survivors (Influenza PR 8 virus; total dose .00005 μg) was 0, the “No. animals surviving when 100% (or given fraction) of controls are dead” value (Influenza PR 8 virus; total dose .0005 μg) was 0 and the Survivors (Influenza PR 8 virus; total dose .0005 μg) was 0. For the same molecule, the “No. animals surviving when 100% (or given fraction) of controls are dead” value (Influenza PR 8 virus; total dose .005 μg) was 0, the Survivors (Influenza PR 8 virus; total dose .005 μg) was 0 and the “No. dying 5-22 day” value (Herpes virus [3]; 2 μg) was 0. The “No. living longer than controls” value (Herpes virus [3]; 2 μg) was 0, the “Total deaths, 4th day” value (Herpes virus [3]; 2 μg) was 10 and the “Deaths on day 2” value (Herpes virus [3]; 20 μg) was 1. For the same molecule, the “Deaths on day 3” value (Herpes virus [3]; 20 μg) was 5, the “No. dying 5-22 day” value (Herpes virus [3]; 20 μg) was 0 and the “No. living longer than controls” value (Herpes virus [3]; 20 μg) was 1. For the same molecule, the “Total deaths, 4th day” value (Herpes virus [3]; 20 μg) was 11, the “Deaths on day 1” value (Herpes virus [3]; .00005 μg) was 4 and the “Deaths on day 3” value (Herpes virus [3]; .00005 μg) was 4. For the same molecule, the “No. dying 5-22 day” value (Herpes virus [3]; .00005 μg) was 1, the “No. living longer than controls” value (Herpes virus [3]; .00005 μg) was 1 and the “Total deaths, 4th day” value (Herpes virus [3]; .00005 μg) was 11. For the same molecule, the “Deaths on day 3” value (Herpes virus [3]; .0005 μg) was 6, the “Deaths on day 4” value (Herpes virus [3]; .0005 μg) was 1 and the “No. dying 5-22 day” value (Herpes virus [3]; .0005 μg) was 0. The No. hatched (Herpes virus [3]; .0005 μg) was 1, the “No. living longer than controls” value (Herpes virus [3]; .0005 μg) was 1 and the “Total deaths, 4th day” value (Herpes virus [3]; .0005 μg) was 11. For the same molecule, the No. hatched (Herpes virus [3]; .005 μg) was 1, the “No. living longer than controls” value (Herpes virus [3]; .005 μg) was 4 and the “Total deaths, 4th day” value (Herpes virus [3]; .005 μg) was 7. The “Deaths on day 1” value (Herpes virus [3]; .05 μg) was 1, the “Deaths on day 2” value (Herpes virus [3]; .05 μg) was 4 and the “Deaths on day 3” value (Herpes virus [3]; .05 μg) was 6. For the same molecule, the “No. dying 5-22 day” value (Herpes virus [3]; .05 μg) was 0, the “No. living longer than controls” value (Herpes virus [3]; .05 μg) was 1 and the “Total deaths, 4th day” value (Herpes virus [3]; .05 μg) was 11. The “Deaths on day 3” value (Herpes virus [3]; .5 μg) was 5, the “Total deaths, 4th day” value (Herpes virus [3]; .5 μg) was 9 and the “Total no. living longer than controls” value (Herpes virus [3]; all doses) was 10. For the same molecule, the “No. animals surviving after 5-9 days” value [4] was 0.
